# Reference: the supplement of paper PMC8149375
# Legend:
# Details in all cases: treatment: drug alone; 5 days
# 769-P [1] = assay: GI50, drug alone; higher = less potent
# Experimental: (§1)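 Primary HTS: 8 RCC cell lines treated with 8 doses (up to 10 uM) of each library drug alone for 5 days; viability read by CellTiter-Glo and normalised to DMSO. GI50 was fitted with XLfit (4-parameter), AUC is the area under the dose-response curve, and minimum viability is the lowest fraction of DMSO viability across doses.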
# 786-O [2] = assay: GI50, drug alone; higher = less potent
# Experimental: as §1
# A498 [3] = assay: GI50, drug alone; higher = less potent
# Experimental: as §1
# ACHN [4] = assay: GI50, drug alone; higher = less potent
# Experimental: as §1
# CAKI-1 [5] = assay: GI50, drug alone; higher = less potent
# Experimental: as §1
# SN12C [6] = assay: GI50, drug alone; higher = less potent
# Experimental: as §1
# TK-10 [7] = assay: GI50, drug alone; higher = less potent
# Experimental: as §1
# UO-31 [8] = assay: GI50, drug alone; higher = less potent
# Experimental: as §1
# 769-P [9] = assay: minimum viability across doses, drug alone, relative to DMSO (fraction); higher = less growth inhibition
# Experimental: as §1
# 786-O [10] = assay: as above
# Experimental: as §1
# A498 [11] = assay: as above
# Experimental: as §1
# ACHN [12] = assay: as above
# Experimental: as §1
# CAKI-1 [13] = assay: as above
# Experimental: as §1
# SN12C [14] = assay: as above
# Experimental: as §1
# TK-10 [15] = assay: as above
# Experimental: as §1
# UO-31 [16] = assay: as above
# Experimental: as §1
# 769-P [17] = assay: AUC of dose-response viability curve, drug alone (arbitrary (AUC of normalised viability)); higher = less growth inhibition
# Experimental: as §1
# 786-O [18] = assay: as above
# Experimental: as §1
# A498 [19] = assay: as above
# Experimental: as §1
# ACHN [20] = assay: as above
# Experimental: as §1
# CAKI-1 [21] = assay: as above
# Experimental: as §1
# SN12C [22] = assay: as above
# Experimental: as §1
# TK-10 [23] = assay: as above
# Experimental: as §1
# UO-31 [24] = assay: as above
# Experimental: as §1
SMILES,"GI50, drug alone (769-P [1])","GI50, drug alone (786-O [2])","GI50, drug alone (A498 [3])","GI50, drug alone (ACHN [4])","GI50, drug alone (CAKI-1 [5])","GI50, drug alone (SN12C [6])","GI50, drug alone (TK-10 [7])","GI50, drug alone (UO-31 [8])",minimum viability across doses (769-P [9]),minimum viability across doses (786-O [10]),minimum viability across doses (A498 [11]),minimum viability across doses (ACHN [12]),minimum viability across doses (CAKI-1 [13]),minimum viability across doses (SN12C [14]),minimum viability across doses (TK-10 [15]),minimum viability across doses (UO-31 [16]),AUC of dose-response viability curve (769-P [17]),AUC of dose-response viability curve (786-O [18]),AUC of dose-response viability curve (A498 [19]),AUC of dose-response viability curve (ACHN [20]),AUC of dose-response viability curve (CAKI-1 [21]),AUC of dose-response viability curve (SN12C [22]),AUC of dose-response viability curve (TK-10 [23]),AUC of dose-response viability curve (UO-31 [24])
CCS(=O)(=O)N1CC(CC#N)(n2cc(-c3ncnc4[nH]ccc34)cn2)C1,> 10 µM,> 10 µM,> 10 µM,> 10 µM,> 10 µM,> 10 µM,> 10 µM,> 10 µM,0.953,0.619,1.07,0.758,0.926,0.885,0.817,1.11,3.62,3.07,4.43,3.17,3.58,3.36,3.09,4.72
Nc1nccc(Oc2ccc(NC(=O)c3c[nH]cc(-c4ccc(F)cc4)c3=O)cc2F)c1Cl,> 10 µM,> 10 µM,> 10 µM,> 10 µM,> 10 µM,> 10 µM,> 10 µM,3.8 µM,0.951,0.607,0.973,0.649,0.716,0.711,0.689,0.00247,3.52,2.73,4.08,3.5,3.45,3.25,2.97,4.74
NC1(Cc2ccc(Cl)cc2)CCN(c2ncnc3[nH]ccc23)CC1,8.76 µM,0.631 µM,> 10 µM,5.91 µM,> 10 µM,7.35 µM,4.56 µM,3.8 µM,0.432,0.0631,0.905,0.287,0.348,0.431,0.284,0.00579,3.31,2.17,4.01,3.38,3.21,3.08,3.01,4.18
CN(C[C@@H]1COCCO1)S(=O)(=O)Nc1ccc2ccc3ncc(-c4cnn(C)c4)cc3c(=O)c2c1 [MK-2461],> 10 µM,> 10 µM,> 10 µM,1.72 µM,1.12 µM,> 10 µM,> 10 µM,> 10 µM,0.772,0.653,0.968,0.217,0.0916,0.727,0.649,1.03,3.6,5.52,7.41,2.6,2.48,3.09,2.8,
Nc1ccc(-c2ccc3ncc4ccc(=O)n(-c5cccc(C(F)(F)F)c5)c4c3c2)cn1 [Torin 2],0.0398 µM,0.00639 µM,0.0354 µM,0.00967 µM,0.0322 µM,0.0203 µM,,0.012 µM,0.0587,0.00282,0.0258,0.0442,0.0161,0.0362,0.0151,0.0112,1.2,0.512,1.25,0.678,1.07,1.02,0.982,0.591
